One molecule from ChEMBL document CHEMBL1129354, “Molecular modeling and site-directed mutagenesis studies of a phorbol ester-binding site in protein kinase C” (J Med Chem, 1996) can be followed below.

The source made the active and inactive calls. The rule behind the calls is not given here.

The test deals with Protein kinase C alpha type (Homo sapiens) (UniProt P17252). The test can be described thus: Relative binding affinity for Protein kinase C alpha (Inactive).

`CCCCCCCCCCCCCCCC(=O)OC[C@@H](CO)OC(=O)CCCCCCCCCCCCCCC`: the Relative binding affinity entry is “inactive”.
